Experiments:
[1] = system: PDGF-R; test: PDGF-R Assay (cellular ELISA, U1242 cells); type: cell-based; set-up: concentration or dose not given beside the values
How it was run: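 U1242 cells seeded in 0.5% serum, serum-starved, then exposed to compound for 2 hr at 37°C before 5–10 min ligand stimulation and lysis in HNTG. Lysate captured on receptor-antibody-coated plates; phosphotyrosine detected with polyclonal anti-pTyr, goat anti-rabbit IgG and ABTS/H2O2, A410 (ref 630 nm), versus untreated cells.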

[2] = molecular target: T1, EGFR (Homo sapiens, UniProt P00533); test: Biochemical EGFR Assay; set-up: concentration or dose not given beside the values
T1 construct: endogenous in cells; host or cells: A431 cells (lysate, captured with SUMO1 anti-EGFR antibody)
T1 sequence (P00533 25-1210): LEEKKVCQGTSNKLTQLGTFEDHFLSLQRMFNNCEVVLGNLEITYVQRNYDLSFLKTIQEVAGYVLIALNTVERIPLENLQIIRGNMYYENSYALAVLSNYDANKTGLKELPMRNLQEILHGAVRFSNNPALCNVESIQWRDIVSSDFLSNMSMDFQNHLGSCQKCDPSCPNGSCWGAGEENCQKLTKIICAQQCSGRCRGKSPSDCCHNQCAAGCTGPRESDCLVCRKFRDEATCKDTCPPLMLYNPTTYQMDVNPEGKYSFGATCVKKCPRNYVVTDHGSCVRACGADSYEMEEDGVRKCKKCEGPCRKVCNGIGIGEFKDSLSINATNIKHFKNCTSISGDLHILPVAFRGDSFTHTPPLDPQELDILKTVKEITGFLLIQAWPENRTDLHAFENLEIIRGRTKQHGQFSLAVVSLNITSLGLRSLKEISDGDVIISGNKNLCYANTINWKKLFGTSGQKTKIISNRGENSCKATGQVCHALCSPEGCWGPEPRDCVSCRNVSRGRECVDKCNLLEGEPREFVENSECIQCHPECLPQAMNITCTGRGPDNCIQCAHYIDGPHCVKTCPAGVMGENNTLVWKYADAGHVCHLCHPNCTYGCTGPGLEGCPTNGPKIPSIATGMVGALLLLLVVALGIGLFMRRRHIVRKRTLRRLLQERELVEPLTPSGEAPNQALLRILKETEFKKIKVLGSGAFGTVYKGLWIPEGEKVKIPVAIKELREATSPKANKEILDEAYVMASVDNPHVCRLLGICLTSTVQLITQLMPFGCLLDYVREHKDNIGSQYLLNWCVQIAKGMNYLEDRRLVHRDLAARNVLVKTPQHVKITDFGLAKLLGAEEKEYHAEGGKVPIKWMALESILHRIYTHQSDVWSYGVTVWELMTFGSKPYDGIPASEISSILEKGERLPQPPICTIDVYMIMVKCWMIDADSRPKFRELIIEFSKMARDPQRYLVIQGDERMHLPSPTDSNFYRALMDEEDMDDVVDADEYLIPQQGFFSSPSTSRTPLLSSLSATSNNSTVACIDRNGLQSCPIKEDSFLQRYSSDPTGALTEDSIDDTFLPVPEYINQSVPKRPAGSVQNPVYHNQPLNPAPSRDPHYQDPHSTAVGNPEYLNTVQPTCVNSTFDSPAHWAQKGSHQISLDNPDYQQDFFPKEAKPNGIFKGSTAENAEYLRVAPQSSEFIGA
How it was run: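 EGFR from A431 lysate was captured on anti-EGFR-coated wells and preincubated 30 min with compound (diluted 1:10 in TBS) at room temperature. After ATP/MnCl2 phosphorylation for 5 min, the reaction was stopped with EDTA. Phosphotyrosine was detected by ELISA (anti-phosphotyrosine, peroxidase conjugate, ABTS) at 410 nm.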

Compound	PDGF Kinase % Inhibition (P.119) [1] [%]	Biochem EGFR % Inhibition (P.167) [2] [%]
N#Cc1ccccc1C=C1C(=O)Nc2ccc(I)cc21 [10735/B07]	0.5	47.7
O=C1Nc2ccc(I)cc2C1=Cc1c(F)cccc1F [10735/B08]	9.8	24.5
O=C1Nc2ccc(I)cc2C1=Cc1cccc2ccccc12 [10735/B09]	−0.5	39.8
O=C1Nc2ccc(I)cc2C1=Cc1ccc(Cl)cc1Cl [10735/B10]	3.6	30.1
O=C1Nc2ccc(I)cc2C1=Cc1ccc(-c2ccccc2)cc1 [10735/B11]	−8.8	52.4
Cc1ccccc1C=C1C(=O)Nc2ccc(Br)c(C)c21 [10735/C02]	4.7	1.6
Cc1c(Br)ccc2c1C(=Cc1ccc(F)c(F)c1)C(=O)N2 [10735/C03]	4.3	8.0
Cc1c(Br)ccc2c1C(=Cc1cc(F)cc(F)c1)C(=O)N2 [10735/C04]	12.9	5.8
Cc1c(Br)ccc2c1C(=Cc1cccc(C(F)(F)F)c1)C(=O)N2 [10735/C05]	20.5	14.5
Cc1c(Br)ccc2c1C(=Cc1cc(C(F)(F)F)cc(C(F)(F)F)c1)C(=O)N2 [10735/C06]	25.0	8.5
Cc1c(Br)ccc2c1C(=Cc1ccccc1C#N)C(=O)N2 [10735/C07]	11.9	−4.9
Cc1c(Br)ccc2c1C(=Cc1c(F)cccc1F)C(=O)N2 [10735/C08]	−2.6	−11.3
Cc1c(Br)ccc2c1C(=Cc1cccc3ccccc13)C(=O)N2 [10735/C09]	−2.6	−22.1
Cc1c(Br)ccc2c1C(=Cc1ccc(Cl)cc1Cl)C(=O)N2 [10735/C10]	4.0	−14.4
Cc1c(Br)ccc2c1C(=Cc1ccc(-c3ccccc3)cc1)C(=O)N2 [10735/C11]	−2.9	−6.4
CNS(=O)(=O)c1ccc2c(c1)C(=Cc1ccccc1C)C(=O)N2 [10735/D02]	11.6	20.3
CNS(=O)(=O)c1ccc2c(c1)C(=Cc1ccc(F)c(F)c1)C(=O)N2 [10735/D03]	12.9	7.5
CNS(=O)(=O)c1ccc2c(c1)C(=Cc1cc(F)cc(F)c1)C(=O)N2 [10735/D04]	8.5	3.8
CNS(=O)(=O)c1ccc2c(c1)C(=Cc1cccc(C(F)(F)F)c1)C(=O)N2 [10735/D05]	20.5	23.0
CNS(=O)(=O)c1ccc2c(c1)C(=Cc1cc(C(F)(F)F)cc(C(F)(F)F)c1)C(=O)N2 [10735/D06]	14.7	8.0
CNS(=O)(=O)c1ccc2c(c1)C(=Cc1ccccc1C#N)C(=O)N2 [10735/D07]	3.6	−17.6
CNS(=O)(=O)c1ccc2c(c1)C(=Cc1c(F)cccc1F)C(=O)N2 [10735/D08]	−5.7	−1.5
CNS(=O)(=O)c1ccc2c(c1)C(=Cc1cccc3ccccc13)C(=O)N2 [10735/D09]	6.7	−0.3
CNS(=O)(=O)c1ccc2c(c1)C(=Cc1ccc(Cl)cc1Cl)C(=O)N2 [10735/D10]	3.3	46.5
CNS(=O)(=O)c1ccc2c(c1)C(=Cc1ccc(-c3ccccc3)cc1)C(=O)N2 [10735/D11]	0.5	−16.5
Cc1ccccc1C=C1C(=O)Nc2ccc(S(=O)(=O)Nc3ccc(C(F)(F)F)cc3)cc21 [10735/E02]	14.7	16.7
O=C1Nc2ccc(S(=O)(=O)Nc3ccc(C(F)(F)F)cc3)cc2C1=Cc1ccc(F)c(F)c1 [10735/E03]	16.0	18.9
O=C1Nc2ccc(S(=O)(=O)Nc3ccc(C(F)(F)F)cc3)cc2C1=Cc1cc(F)cc(F)c1 [10735/E04]	91.6	14.3
O=C1Nc2ccc(S(=O)(=O)Nc3ccc(C(F)(F)F)cc3)cc2C1=Cc1cccc(C(F)(F)F)c1 [10735/E05]	47.8	30.6
O=C1Nc2ccc(S(=O)(=O)Nc3ccc(C(F)(F)F)cc3)cc2C1=Cc1cc(C(F)(F)F)cc(C(F)(F)F)c1 [10735/E06]	32.3	8.7
